Reference: publication PMC7567588 (Science Advances, 2020)
*: point of attachment. ACC = NC(=O)Cc1cc(=O)oc2cc(N*)ccc12

Experiments:
human DUB UCH-L3 [1] = target: T1, human DUB UCH-L3 (Homo sapiens, UniProt P15374); type: biochemical
[2] = system: human DUBs in HeLa lysates; type: biochemical
SARS-CoV-2 PLpro [3] = target: T2, SARS-CoV-2 PLpro (Severe acute respiratory syndrome coronavirus 2, UniProt P0DTD1)
human DUB UCH-L3 [4] = target: T1, human DUB UCH-L3; type: biochemical; remark: listed apart in the source
SARS-CoV-2 PLpro [5] = target: T2, SARS-CoV-2 PLpro; remark: listed apart in the source

T1 sequence (P15374 whole entry, looked up): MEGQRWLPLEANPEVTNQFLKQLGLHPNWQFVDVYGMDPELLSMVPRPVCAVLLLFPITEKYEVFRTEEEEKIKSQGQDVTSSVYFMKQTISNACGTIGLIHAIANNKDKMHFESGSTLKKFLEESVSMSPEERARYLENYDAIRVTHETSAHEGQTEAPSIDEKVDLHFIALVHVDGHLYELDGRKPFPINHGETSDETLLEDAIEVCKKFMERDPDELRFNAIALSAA

Substance	inhibition of DUB activity (residual activity) (human DUB UCH-L3 [1])	Ub-VME cross-linking profile of HeLa lysates on titration of inhibitor [2]	inhibition of DUB activity (residual activity) (SARS-CoV-2 PLpro [3])	substrate recognition (hydrolysis rate, RFU/s) (human DUB UCH-L3 [4])	substrate recognition (hydrolysis rate, RFU/s) (SARS-CoV-2 PLpro [5])
Ac-Abu(Bth)-Dap-Gly-Gly-VME [VIR250]	practically no inhibition	unaltered	robustly inhibit	–	–
Ac-LRGG-{ACC} [Ac-LRGG-ACC]	–	–	–	recognized	recognized
